# Values quoted from earlier work in patent US7115654B2, “Caspase-1 inhibitors and methods for their use” (Sunesis Pharmaceuticals, Inc., priority 2002, dated 2006).
# System: embryonic nigral cell suspension
substance,measurement,setting,value
Ac-YVAD-cmk,functional recovery,hemiparkinsonian rats,substantially improved
same,survival of dopaminergic neurons,neurons grafted to hemiparkinsonian rats,increased
same,apoptosis in transplants,treatment of the embryonic nigral cell suspension,reduced
same,DNA fragmentation,"treatment of the embryonic nigral cell suspension, in transplants",mitigated
